The values below are quoted from earlier work in patent US20210121517A1, “STABLE PARENTERAL DOSAGE FORM OF CETRORELIX ACETATE” (Sun Pharmaceutical Industries Limited, priority 2019, published 2021).

Where two headings read alike, the source gives them in different places.

For this series the following is noted: 2.5 mg/ml.

“acetyl-D-3-(2′-naphtyl)-alanine-D-4-chlorophenylalanine-D-3-(3′-pyridyl)-alanine-L-serine-L-tyrosine-D-citruline-L-leucine-L-arginine-L-proline-D-alanine-amide [Cetrorelix acetate]”: the “time until aggregation was seen” value runs as follows: (gluconic acid 0.71%, pH 3.1) 12 days; (gluconic acid less than 0.07%, pH 3.7) ≤ 2 days.
